US11066413B2, “Aminopyrimidine five-membered heterocyclic compound, and intermediate, preparation method, pharmaceutical composition and application thereof” (GUANGZHOU MAXINOVEL PHARMACEUTICALS CO., LTD., priority 2017, dated 2021)

Biological target: T1, hA2A receptor (Homo sapiens (Human), UniProt P29274)
Experiment: binding affinity IC50 to hA2A receptor (SPA beads, Effect Embodiment 1)
Settings: A2A receptor membrane, 1 hour at room temperature, read-out: IC50 values of compound 1 binding affinity to hA2A receptor
Description: evaluation experiment of the binding affinity IC50 of the compound 1 to hA2A receptor.
Experimental procedure • 1. Preparation of the test compound. • 1) The compound mother plate (1500 rpm, 1 minute) was centrifuged; • 2) 50 Nanoliters was transferred from the compound mother plate to the reaction plate by a nano-sound sonic pipetting system; • 2. Preparation of buffer medium membrane, preparation of beads suspension; • 1) DMSO was added to the assay buffer, final concentration of DMSO was 1%; • 2) homogenized A2A receptor membrane was connected to a 1 mL syringe five times by a No. 26 needle (to avoid air bubbles); • 3) the buffer, A2A receptor membrane and ADA were mixed, and was let stand for 15 minutes at room temperature; • 4) SPA beads were added and mixed well with A2A receptor membrane; • 3. Preparation of radioisotope buffer • 4. Mix reaction reagents • 1) 20 μL of radioactive buffer solution was added into the reaction plate; • 2) 30 μL of membrane and […] suspension was added into the reaction plate; • 3) the plate was sealed and incubated for 1 hour at room temperature with vigorous mixing and shaking; • 4) the beads were precipitated for 4-5 minutes before reading. • 5) Reading with Microbeta; • 5. Data processing

T1 sequence (P29274 whole entry): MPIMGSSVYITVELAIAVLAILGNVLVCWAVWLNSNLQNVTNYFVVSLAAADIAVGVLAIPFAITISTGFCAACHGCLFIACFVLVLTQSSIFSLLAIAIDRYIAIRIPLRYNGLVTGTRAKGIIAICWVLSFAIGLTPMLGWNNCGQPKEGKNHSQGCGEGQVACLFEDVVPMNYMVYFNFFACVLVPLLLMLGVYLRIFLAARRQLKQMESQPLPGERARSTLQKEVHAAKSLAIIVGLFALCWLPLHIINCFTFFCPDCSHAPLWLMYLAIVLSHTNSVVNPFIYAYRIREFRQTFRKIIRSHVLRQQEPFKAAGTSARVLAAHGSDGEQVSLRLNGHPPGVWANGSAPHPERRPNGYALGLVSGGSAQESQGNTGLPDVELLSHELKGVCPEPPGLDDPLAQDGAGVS

In the case of `Nc1nc(-c2ccco2)c2c(n1)C(Cc1ccccc1F)OC2=O` (stereo not shown) [Compound 1, 2-amino-7-(2-fluorobenzyl)-4-(furan-2-yl)-5H,7H-furo[3,4-d]pyrimidin-5-one], the IC50 is reported as 79 nM.

Biological target: T1, hA2A receptor
Experiment: binding affinity IC50 to hA2A receptor ([3H]-CGS 21680 filter binding, Effect Embodiment 2)
Settings: A2A membrane, [3H]-CGS 21680 (final 25 nM), 90 minutes at 25° C.
Description: Evaluation experiment of the binding affinity IC50 of the compounds 1-61 to hA2A receptor
40 uL of ULTIMA GOLD scintillation fluid was added to each well and the CPM (count per minute) value was read by TopCount.

Point of comparison: `Nc1nc(-c2ccco2)c2c(n1)C(Cc1ccccc1F)OC2=O` (stereo not shown) [Compound 1, 2-amino-7-(2-fluorobenzyl)-4-(furan-2-yl)-5H,7H-furo[3,4-d]pyrimidin-5-one], IC50 14.7 nM. Against it:
- CN1C(=O)c2c(-c3ccco3)nc(N)nc2C1Cc1ccc(F)cc1F (stereo not shown) [Compound 47, 2-amino-7-((2,4-difluorophenyl)methyl)-4-(furan-2-yl)-6-methyl-5H,6H,7H-pyrrolo[3,4-d]pyrimidin-5-one] — within 1.5-fold, 16.4 nM
- Cc1ccc(-c2nc(N)nc3c2C(=O)N(C)C3=Cc2ccc(F)cc2F)o1 [Compound 48, 2-amino-7-((2,4-difluorophenyl)methylene)-4-(5-methylfuran-2-yl)-6-methyl-5H,6H,7H-pyrrolo[3,4-d]pyrimidin-5-one] — within 1.5-fold, 13.2 nM
- Cc1ccc(-c2nc(N)nc3c2C(=O)N(C)C3Cc2ccc(F)cc2F)o1 (stereo not shown) [Compound 49, 2-amino-7-((2,4-difluorophenyl)methyl)-4-(5-methylfuran-2-yl)-6-methyl-5H,6H,7H-pyrrolo[3,4-d]pyrimidin-5-one] — 2.2-fold higher, 32.1 nM
- Cc1ccc(-c2nc(N)nc3c2C(=O)N(C)C3=Cc2ccccc2F)o1 [Compound 50, 2-amino-7-((2-fluorophenyl)methylene)-4-(5-methylfuran-2-yl)-6-methyl-5H,6H,7H-pyrrolo[3,4-d]pyrimidin-5-one] — 2-fold lower, 7.3 nM
- Cc1ccc(-c2nc(N)nc3c2C(=O)N(C)/C3=C\c2ccccc2C(F)(F)F)o1 [Compound 51, 2-amino-7-((2-(trifluoromethyl)phenyl)methylene)-4-(5-methylfuran-2-yl)-6-methyl-5H,6H,7H-pyrrolo[3,4-d]pyrimidin-5-one] — 3.1-fold lower, 4.7 nM
- Cc1ccc(-c2nc(N)nc3c2C(=O)N(C)C3=Cc2ccccc2OC(F)(F)F)o1 [Compound 52, 2-amino-7-((2-(trifluoromethoxyl)phenyl)methylene)-4-(5-methylfuran-2-yl)-6-methyl-5H,6H,7H-pyrrolo[3,4-d]pyrimidin-5-one] — 4.1-fold lower, 3.6 nM
- Cc1ccc(-c2nc(N)nc3c2C(=O)N(C)C3Cc2ccccc2OC(F)(F)F)o1 (stereo not shown) [Compound 53, 2-amino-7-((2-(trifluoromethoxyl)phenyl)methyl)-4-(5-methylfuran-2-yl)-6-methyl-5H,6H,7H-pyrrolo[3,4-d]pyrimidin-5-one] — 3.8-fold higher, 56.2 nM
- Cc1ccc(-c2nc(N)nc3c2C(=O)N(C)C3Cc2ccccc2C(F)(F)F)o1 (stereo not shown) [Compound 54, 2-amino-7-((2-(trifluoromethyl)phenyl)methyl)-4-(5-methylfuran-2-yl)-6-methyl-5H,6H,7H-pyrrolo[3,4-d]pyrimidin-5-one] — 2.4-fold higher, 34.7 nM
- Cc1ccc(-c2nc(N)nc3c2C(=O)N(C)C3Cc2ccccc2F)o1 (stereo not shown) [Compound 55, 2-amino-7-((2-fluorophenyl)methyl)-4-(5-methylfuran-2-yl)-6-methyl-5H,6H,7H-pyrrolo[3,4-d]pyrimidin-5-one] — 2-fold higher, 29.3 nM
- Cc1ccc(-c2nc(N)nc3c2C(=O)N(C)C3=Cc2ccc(F)cc2C(F)(F)F)o1 [Compound 56, 2-amino-7-((2-(trifluoromethyl)-4-fluorophenyl)methylene)-4-(5-methylfuran-2-yl)-6-methyl-5H,6H,7H-pyrrolo[3,4-d]pyrimidin-5-one] — 4.3-fold lower, 3.4 nM
- Cc1ccc(-c2nc(N)nc3c2C(=O)N(C)C3Cc2ccc(F)cc2C(F)(F)F)o1 (stereo not shown) [Compound 57, 2-amino-7-((2-(trifluoromethyl)-4-fluorophenyl)methyl)-4-(5-methylfuran-2-yl)-6-methyl-5H,6H,7H-pyrrolo[3,4-d]pyrimidin-5-one] — 10-fold higher, 152 nM
- Cc1ccc(-c2nc(N)nc3c2C(=O)N(C)C3Cc2cc[n+]([O-])cc2)o1 (stereo not shown) [Compound 58, 4-((2-amino-6-methyl-4-(5-methylfuran-2-yl)-5-carbonyl-5H-pyrrolo[3,4-d]pyrimidin-7(6H)-ene)methyl)-N-oxide pyridine] — within 1.5-fold, 21 nM
- Cc1ccc(-c2nc(N)nc3c2C(=O)N(C)C3Cc2ccncc2)o1 (stereo not shown) [Compound 59, 2-amino-6-methyl-4-(5-methylfuran-2-yl)-7-(pyridin-4-ylmethyl)-6,7-dihydro-5-carbonyl-5H-pyrrolo[3,4-d]pyrimidine] — 12-fold higher, 179 nM
- Cc1ccc(-c2nc(N)nc3c2n(C)c(=O)n3-c2ccccc2C(F)(F)F)o1 [Compound 61, 2-amino-7-methyl-6-(5-methylfuran-2-yl)-9-(2-(trifluoromethyl)phenyl)-8(9H)-carbonyl-7H-purine] — 14-fold higher, 213 nM
